Assays:
[1] = target: EGFR (UniProt P00533)
[2] = target: MAPK14 (human) (UniProt Q16539); assay: Inhibition of MAPK14 Kinase Activity
[3] = target: EGFR (UniProt P00533); remark: listed apart in the source
[4] = target: EGFR (mouse) (UniProt P00533); settings: nih3t3/c7
[5] = target: EGFR (UniProt P00533); remark: listed apart in the source
[6] = target: EGFR (UniProt P00533); remark: listed apart in the source
[7] = target: EGFR (human) (UniProt P00533); settings: f/l herc cells
[8] = target: MAPK14 (UniProt Q16539); assay: Inhibition of MAPK Activity
[9] = target: EGFR (human) (UniProt P00533); settings: a431
[10] = target: EGFR (human) (UniProt P00533); settings: a431; remark: listed apart in the source
[11] = target: EGFR (UniProt P00533); remark: listed apart in the source
[12] = target: EGFR (human) (UniProt P00533); settings: a431; remark: listed apart in the source
[13] = target: MAPK14 (human) (UniProt Q16539); assay: Inhibition of TNF-alpha Release from LPS Stimulated hPBMCs; settings: pbmc
[14] = target: EGFR (human) (UniProt P00533); settings: mkn45, concentration not given here
[15] = target: EGFR (human) (UniProt P00533); settings: a431; remark: listed apart in the source
[16] = target: EGFR (human) (UniProt P00533); settings: a431; remark: listed apart in the source
[17] = target: EGFR (UniProt P00533); remark: listed apart in the source
[18] = target: EGFR (human) (UniProt P00533); settings: a431; remark: listed apart in the source
[19] = target: EGFR (murine) (UniProt P00533); settings: nih3t3
[20] = target: CDK2 (UniProt P24941); assay: Enzyme Assay
[21] = target: CDK2 (UniProt P24941); assay: Enzyme Assay; remark: listed apart in the source
[22] = target: MAPK14 (UniProt Q16539); assay: p38 Binding Asssy
[23] = target: EGFR (UniProt P00533); remark: listed apart in the source
[24] = target: EGFR (murine) (UniProt P00533); settings: nih3t3; remark: listed apart in the source
[25] = target: EGFR (murine) (UniProt P00533); settings: f/l-herc
[26] = target: EGFR (murine) (UniProt P00533); settings: f/l-herc; remark: listed apart in the source
[27] = target: MAP2K1;MAPK14 (human) (UniProt Q16539); assay: Inhibition of CaCO Cell Proliferation by MTT Assay; settings: caco-2
[28] = target: MAP2K1;MAPK14 (human) (UniProt Q16539); assay: Inhibition of LOVO Cell Proliferation by MTT Assay
[29] = target: EGFR (human) (UniProt P00533); settings: a431, concentration not given here
[30] = tested on: MAPK14 (Balb/c mice); assay: Inhibition of LPS Induced TNF-alpha Release in Mice
[31] = target: EGFR (UniProt P00533); remark: listed apart in the source
[32] = target: ROCK2 (UniProt O75116); assay: Inhibition of COS cell Derived Rho kinase (ROCKII)
[33] = target: EGFR (UniProt P00533); remark: listed apart in the source
[34] = target: EGFR (human) (UniProt P00533); settings: A431
[35] = target: PIK3CA (UniProt P42336); assay: Inhibition of PIK3CA Kinase Activity
[36] = target: PIK3CG (human) (UniProt P48736); assay: Inhibition of PIK3CG Kinase Activity by SPA Assay

MAPK14 (human), sequence (Q16539 whole entry, looked up): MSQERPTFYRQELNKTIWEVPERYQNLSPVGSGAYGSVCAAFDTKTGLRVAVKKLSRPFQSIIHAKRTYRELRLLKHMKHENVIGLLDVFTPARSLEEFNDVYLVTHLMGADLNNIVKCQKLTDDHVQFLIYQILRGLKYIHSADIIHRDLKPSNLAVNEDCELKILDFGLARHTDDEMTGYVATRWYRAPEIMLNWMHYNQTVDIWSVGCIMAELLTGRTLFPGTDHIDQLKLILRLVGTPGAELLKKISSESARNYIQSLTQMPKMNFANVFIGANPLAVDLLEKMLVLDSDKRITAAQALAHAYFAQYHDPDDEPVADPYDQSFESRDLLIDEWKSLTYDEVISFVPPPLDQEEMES
EGFR (human), sequence (P00533 whole entry, looked up): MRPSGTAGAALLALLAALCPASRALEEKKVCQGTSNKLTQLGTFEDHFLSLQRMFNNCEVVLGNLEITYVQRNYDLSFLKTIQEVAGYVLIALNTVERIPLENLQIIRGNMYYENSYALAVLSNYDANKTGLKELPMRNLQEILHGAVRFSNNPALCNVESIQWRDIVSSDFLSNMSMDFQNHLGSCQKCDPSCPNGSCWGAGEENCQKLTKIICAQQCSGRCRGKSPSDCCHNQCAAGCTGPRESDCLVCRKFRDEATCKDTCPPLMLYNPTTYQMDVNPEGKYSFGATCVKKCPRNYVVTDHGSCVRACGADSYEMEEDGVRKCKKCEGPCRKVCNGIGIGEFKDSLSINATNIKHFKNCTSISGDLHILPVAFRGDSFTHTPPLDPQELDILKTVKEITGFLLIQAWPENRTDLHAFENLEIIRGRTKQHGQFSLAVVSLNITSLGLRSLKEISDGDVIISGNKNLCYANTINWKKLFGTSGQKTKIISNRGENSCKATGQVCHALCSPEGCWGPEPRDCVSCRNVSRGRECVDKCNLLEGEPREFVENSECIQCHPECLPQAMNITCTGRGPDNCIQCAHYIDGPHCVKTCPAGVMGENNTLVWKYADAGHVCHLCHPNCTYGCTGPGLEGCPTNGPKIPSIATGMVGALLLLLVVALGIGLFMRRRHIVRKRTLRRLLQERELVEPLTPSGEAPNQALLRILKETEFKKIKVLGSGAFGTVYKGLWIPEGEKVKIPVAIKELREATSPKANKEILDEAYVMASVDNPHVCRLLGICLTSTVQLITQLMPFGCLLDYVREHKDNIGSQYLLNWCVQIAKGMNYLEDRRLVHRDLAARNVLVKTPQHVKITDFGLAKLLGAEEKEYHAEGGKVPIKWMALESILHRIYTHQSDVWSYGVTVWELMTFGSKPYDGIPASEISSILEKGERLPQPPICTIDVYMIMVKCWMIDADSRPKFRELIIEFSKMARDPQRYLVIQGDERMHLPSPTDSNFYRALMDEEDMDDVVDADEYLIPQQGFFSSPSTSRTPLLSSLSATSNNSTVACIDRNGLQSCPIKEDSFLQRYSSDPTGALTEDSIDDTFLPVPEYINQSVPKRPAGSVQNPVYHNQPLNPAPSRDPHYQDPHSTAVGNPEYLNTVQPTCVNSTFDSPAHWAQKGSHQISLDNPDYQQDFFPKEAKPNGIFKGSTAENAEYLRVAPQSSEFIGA
EGFR, sequence (P00533 whole entry, looked up): as above
EGFR (murine), sequence (P00533 whole entry, looked up): as above
MAP2K1;MAPK14 (human), sequence (Q16539 whole entry, looked up): as the sequence (Q16539 whole entry, looked up) above
MAPK14, sequence (Q16539 whole entry, looked up): as above

Compound: O=C(CCCNc1ncc(C(F)(F)F)cc1Cl)NNS(=O)(=O)c1ccc(CNC(=O)c2ccc(Cl)cc2)s1
- IC50 [1]: > 10000 nM
- IC50 [2]: > 10000 nM

Compound: Cn1c(=O)c(-c2c(Cl)cccc2Cl)cc2cnc(Nc3ccccc3)nc21
- IC50 [3]: 78 nM

Compound: Cc1nc2cc3nc(-c4ccccc4)[nH]c3cc2nc1C
- IC50 [4]: > 10000 nM

Compound: N#C/C(=C\c1ccc(O)c(O)c1)C(=O)NCCCCc1ccccc1
- IC50 [5]: 5000 nM

Compound: Cc1cc(C)c(N(C)C)c(C)c1Cc1nc(-c2ccncc2)c(-c2ccc(Cl)cc2)[nH]1
- IC50 [6]: 50 nM

Compound: CCOC(=O)CN1CCN(C/C=C/C(=O)Nc2cc3c(Nc4ccc(F)c(Cl)c4)ncnc3cc2OCCC2CC2)CC1
- IC50 [7]: 17 nM

Compound: Cn1cnc2c(NCc3ccccc3)nc(NCCO)nc21
- IC50 [8]: 30000 nM

Compound: COc1cc2ncnc(N[C@H](COC(C)=O)c3ccccc3)c2cc1OC
- IC50 [9]: 5300 nM
- IC50 [10]: 1310 nM

Compound: Brc1cccc(Nc2ncnc3cc4[nH]cc(CNN5CCOCC5)c4cc23)c1
- IC50 [11]: 4.8 nM
- IC50 [12]: 9.6 nM

Compound: Cc1ccc(S(=O)(=O)Nc2ccc3c(c2)CNC(=O)N3c2c(Cl)cccc2Cl)cc1
- IC50 [13]: > 10000 nM

Compound: CN1CCN(CCCNc2ncc3cc(-c4c(Cl)cccc4Cl)c(=O)n(C)c3n2)CC1
- IC50 [3]: 8700 nM

Compound: Nc1c2c(nc3ccccc13)-c1cccnc1CC2
- cell viability [14]: > 90%

Compound: C/C(=C/c1cc2c(N)nc(N)nc2o1)c1ccc2ccccc2c1
- IC50 [15]: > 50000 nM
- IC50 [16]: > 50000 nM

Compound: N#CC(C#N)=Cc1cc(O)c(O)c(O)c1
- IC50 [17]: 50000 nM
- Ki [18]: 1000 nM

Compound: N#Cc1ccc(NC(=S)Nc2ccc(S(=O)(=O)N3CCCCC3)cc2)cc1
- IC50 [19]: > 100000 nM

Compound: Cn1c2ccccc2c2cc[n+]3c(c21)C(=O)c1ccccc1-3
- IC50 [20]: > 100000 nM
- IC50 [21]: > 100000 nM

Compound: [N-]=[N+]=Nc1ccc(-c2nc(-c3cccc(I)c3)c(-c3ccncc3)[nH]2)cc1
- IC50 [22]: 640 nM

Compound: C=CC(=O)Nc1cc2c(Nc3cccc(Br)c3)c(C#N)cnc2cc1OC
- IC50 [23]: 810 nM

Compound: CC(C)S(=O)(=O)c1csc(NC(=O)Nc2ccc(C(C)(C)C)cc2)c1Cl
- IC50 [19]: > 100000 nM

Compound: NS(=O)(=O)c1ccc2c(c1)/C(=C/C1=CC3=C(CCCC3)C1)C(=O)N2
- IC50 [24]: > 100000 nM

Compound: CN1C2CC[C@]1(Nc1ncc3ncnc(Nc4ccc(F)c(Cl)c4)c3n1)CC(O)C2 (stereo partly drawn)
- IC50 [25]: > 10000 nM
- IC50 [26]: 138 nM

Compound: COc1cc2c(Nc3ccc(Sc4nccn4C)c(Cl)c3)c(C#N)cnc2cc1OCCC[N+]1([O-])CCSCC1
- IC50 [27]: > 1000 nM
- IC50 [28]: 36 nM

Compound: C=CC(=O)Nc1ccc2ncnc(Nc3ccc(Oc4ccccc4)cc3)c2c1
- activity [29]: 0%

Compound: N#C/C(=C\c1ccc(O)c(O)c1)C(=O)NCCCc1ccccc1
- IC50 [5]: 700 nM

Compound: CONC(=O)c1ccc(C)c(Nc2nc(N(C)CC(C)(C)C)nc(N3CCCN(C)CC3)n2)c1
- ED50 [30]: Between 3 to 10 mg kg-1
- Ki [2]: 4.2 nM

Compound: COc1cc2ncnc(N[C@H](CO)c3ccccc3)c2cc1OC
- IC50 [9]: > 1560 nM
- IC50 [10]: 800 nM

Compound: Nc1ccc(-c2cc(Nc3ccc(S(N)(=O)=O)cc3)[nH]n2)cc1
- IC50 [31]: > 10000 nM

Compound: N=C(N)NC[C@H]1CC[C@H](C(=O)NC2=CC=NC3NN=CC23)CC1 (stereo partly drawn)
- IC50 [32]: 470 nM

Compound: Cc1cc(C(=O)N2CCOCC2)[nH]c1/C=C1/C(=O)Nc2ncnc(N3CCCCC3)c21
- IC50 [33]: > 20000 nM

Compound: O[C@H]1CC[C@H](Nc2ncc3ncnc(Nc4ccc5c(c4)-c4ccccc4C5)c3n2)CC1
- IC50 [26]: > 10000 nM

Compound: c1ccc(COc2ccc(Nc3ncnc4ccc(-c5ccc(CNCc6cccnc6)o5)cc34)cc2)cc1
- IC50 [34]: 200 nM

Compound: COc1ccc(-c2cc(=O)cc(N3CCOCC3)o2)cc1
- IC50 [35]: > 50000 nM

Compound: COc1ccccc1Cn1cnc2ccc(/C=C3\SC(=O)NC3=O)cc21
- IC50 [36]: < 1000 nM
